According to ChEMBL document CHEMBL1201862, “PubChem BioAssay data set” (2004):
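Protocol summary: plate cells (96-well), add compound at 5 concentrations, incubate 48 h, interpolate endpoints linearly. Here, GI50 denotes the concentration required for 50% inhibition of growth.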 Active and inactive are the calls of the source. No stated cut-off is given here; in the data, active = GI50 up to about 1.1 µM and inactive = higher.

Columns and labels:
Test in all cases: NCI tumour cell line growth inhibition, 48 h
CCRF-CEM = tested on: CCRF-CEM
M19-MEL = tested on: M19-MEL
SF-539 = tested on: SF-539
SK-MEL-2 = tested on: SK-MEL-2
IGROV-1 = tested on: IGROV-1
OVCAR-3 = tested on: OVCAR-3
UACC-257 = tested on: UACC-257
HOP-62 = tested on: HOP-62
UO-31 = tested on: UO-31
SW-620 = tested on: SW-620
OVCAR-5 = tested on: OVCAR-5
NCI-H460 = tested on: NCI-H460
RPMI-8226 = tested on: RPMI-8226
T47D = tested on: T47D
HCT-116 = tested on: HCT-116
SNB-75 = tested on: SNB-75
PC-3 = tested on: PC-3
DU-145 = tested on: DU-145
Hs-578T = tested on: Hs-578T
OVCAR-4 = tested on: OVCAR-4

In the case of O=[As]O, the GI50 (CCRF-CEM) is reported as 15.6 µM (inactive), the GI50 (M19-MEL) is reported as 20.5 µM (inactive) and the GI50 (SF-539) is reported as 22.8 µM (inactive). For the same compound, the GI50 (SK-MEL-2) was > 59.6 µM (inactive), the GI50 (IGROV-1) was 28 µM (inactive) and the GI50 (OVCAR-3) was > 45.7 µM (inactive). The GI50 (UACC-257) was > 48.6 µM (inactive), the GI50 (HOP-62) was > 100 µM (inactive) and the GI50 (UO-31) was > 100 µM (inactive). For the same compound, the GI50 (SW-620) was > 64.1 µM (inactive), the GI50 (OVCAR-5) was > 100 µM (inactive) and the GI50 (NCI-H460) was > 100 µM (inactive). For the same compound, the GI50 (RPMI-8226) was > 40.5 µM (inactive), the GI50 (T47D) was > 100 µM (inactive) and the GI50 (HCT-116) was > 93.3 µM (inactive). The GI50 (SNB-75) was > 51.1 µM (inactive), the GI50 (PC-3) was > 100 µM (inactive) and the GI50 (DU-145) was > 100 µM (inactive). For the same compound, the GI50 (Hs-578T) was > 100 µM (inactive) and the GI50 (OVCAR-4) was > 91.6 µM (inactive).
With CCc1ccc(/C=C\c2cc(OC)c(OC)c(OC)c2)cc1 the GI50 (CCRF-CEM) was 0.00998 µM (active), the GI50 (M19-MEL) was 0.163 µM (active) and the GI50 (SF-539) was 0.0101 µM (active). For the same compound, the GI50 (SK-MEL-2) was 0.112 µM (active), the GI50 (IGROV-1) was 0.0493 µM (active) and the GI50 (OVCAR-3) was 0.00843 µM (active). The GI50 (UACC-257) was 0.0268 µM (active), the GI50 (HOP-62) was 0.0531 µM (active) and the GI50 (UO-31) was 0.0355 µM (active). For the same compound, the GI50 (SW-620) was 0.00897 µM (active), the GI50 (OVCAR-5) was 0.391 µM (active) and the GI50 (NCI-H460) was 0.0235 µM (active). The GI50 (RPMI-8226) was 0.0127 µM (active), the GI50 (T47D) was 0.17 µM (active) and the GI50 (HCT-116) was 0.0107 µM (active). For the same compound, the GI50 (SNB-75) was 0.0234 µM (active), the GI50 (PC-3) was 0.00325 µM (active) and the GI50 (DU-145) was 0.0303 µM (active). For the same compound, the GI50 (Hs-578T) was 0.00255 µM (active) and the GI50 (OVCAR-4) was 0.617 µM (active).
